Test results as given in ChEMBL document CHEMBL3861999, “Investigation of C-5 alkynyl (alkynyloxy or hydroxymethyl) and/or N-3 propynyl substituted pyrimidine nucleoside analogs as a new class of antimicrobial agents” (Bioorg Med Chem, 2016).

Columns and labels:
Type in all cases: functional
Details in all cases: variant bovis BCG, 144 h, read-out: GI
[1] = tested on: Mycobacterium tuberculosis; test: Growth inhibition of Mycobacterium bovis BCG at 200 ug/ml after 6 days by microplate alamar blue assay
[2] = tested on: Mycobacterium tuberculosis; test: Growth inhibition of Mycobacterium bovis BCG at 1 ug/ml after 6 days by microplate alamar blue assay
[3] = tested on: Mycobacterium tuberculosis; test: Growth inhibition of Mycobacterium bovis BCG at 0.5 ug/ml after 6 days by microplate alamar blue assay

Row | SMILES | inhibition of growth at 200 µg/mL [1] [%] | also measured
1 | C#CCOc1cn([C@@H]2O[C@H](CO)[C@@H](O)[C@H]2F)c(=O)[nH]c1=O | 98 | –
2 | C#CCOc1cn([C@@H]2O[C@H](CO)[C@@H](O)[C@H]2F)c(=O)n(CC#C)c1=O | 34 | –
3 | NNC(=O)c1ccncc1 [ISONIAZID] | – | inhibition of growth at 1 µg/mL [2]: 100%
4 | CO[C@H]1/C=C/O[C@@]2(C)Oc3c(C)c(O)c4c(O)c(c(/C=N/N5CCN(C)CC5)c(O)c4c3C2=O)NC(=O)/C(C)=C\C=C\[C@H](C)[C@H](O)[C@@H](C)[C@@H](O)[C@@H](C)[C@H](OC(C)=O)[C@@H]1C [RIFAMPIN] | – | inhibition of growth at 0.5 µg/mL [3]: 100%
